This is an account of results in ChEMBL document CHEMBL1201862, “PubChem BioAssay data set” (2004).

One test has as its system INS1. The test can be described thus: INS-1E survival protection against cytokine death – cell-based, luminescence, retest, dose response (AID 449756).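 Further: cell death triggered by IL-1 beta plus TNF-alpha plus IFN-gamma mixture; protective hits raise ATP signal compared with cytokine alone wells.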 The note with it: Rattus norvegicus. The format is functional.
Another test deals with Nonstructural protein 1 (Influenza A virus, UniProt Q194T2). The format is functional, Influenza A virus (A/California/07/2009(H1N1)).
Test [1] concerns the target T1, Rac GTPase-activating protein 1 (Homo sapiens, UniProt Q9H0H5).
T1 sequence (Q9H0H5 whole entry): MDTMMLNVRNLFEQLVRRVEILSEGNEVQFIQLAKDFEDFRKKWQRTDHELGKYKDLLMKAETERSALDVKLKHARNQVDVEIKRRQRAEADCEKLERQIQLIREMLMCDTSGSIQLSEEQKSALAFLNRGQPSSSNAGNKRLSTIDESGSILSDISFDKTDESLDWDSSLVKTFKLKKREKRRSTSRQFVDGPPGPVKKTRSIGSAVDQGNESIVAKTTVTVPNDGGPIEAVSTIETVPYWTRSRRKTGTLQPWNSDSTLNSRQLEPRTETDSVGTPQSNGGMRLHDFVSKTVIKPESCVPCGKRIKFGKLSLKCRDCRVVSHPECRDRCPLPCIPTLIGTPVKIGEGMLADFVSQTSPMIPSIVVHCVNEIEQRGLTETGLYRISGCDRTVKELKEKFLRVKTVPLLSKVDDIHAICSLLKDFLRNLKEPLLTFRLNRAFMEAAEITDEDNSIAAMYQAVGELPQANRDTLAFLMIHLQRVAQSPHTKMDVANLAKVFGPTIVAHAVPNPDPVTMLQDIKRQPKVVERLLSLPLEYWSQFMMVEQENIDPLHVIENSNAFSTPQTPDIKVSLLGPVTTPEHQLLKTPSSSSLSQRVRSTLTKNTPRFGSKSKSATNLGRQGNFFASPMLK
The test can be described thus: blockers of MgcRacGAP-driven Rac1 GTP hydrolysis – biochemical, ADP Hunter fluorescence, primary and confirmatory, confirmation (AID 624330). The format is functional.

Test [2] is described as follows: HIV-1 AD8 envelope cell-cell fusion blockers – cherry-pick, dose response (AID 652062).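 Further: luciferase signal from cell-cell fusion driven by HIV-1 clade B AD8 Env; potency is for inhibitors of fusion seen as a drop in luminescence.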 The format is functional, cell-based.
Test [3] in a line: fluconazole-exposed Candida albicans growth modulators – fluorescence, retest, confirmation (AID 2467). Type of test: functional, cell-based.
The nature of test [4]: NIH-3T3 fibroblast cytotoxicity, dose response, cytotoxicity control, cell-based, fluorescence, Alamar Blue, secondary assay (AID 2327).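 Further: NIH-3T3 mouse fibroblasts cultured with fluconazole at 8 µg/mL.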 The format is functional.
Test [5] deals with T2, Zinc finger protein mex-5 (Caenorhabditis elegans, UniProt Q9XUB2).
T2 sequence (Q9XUB2 whole entry): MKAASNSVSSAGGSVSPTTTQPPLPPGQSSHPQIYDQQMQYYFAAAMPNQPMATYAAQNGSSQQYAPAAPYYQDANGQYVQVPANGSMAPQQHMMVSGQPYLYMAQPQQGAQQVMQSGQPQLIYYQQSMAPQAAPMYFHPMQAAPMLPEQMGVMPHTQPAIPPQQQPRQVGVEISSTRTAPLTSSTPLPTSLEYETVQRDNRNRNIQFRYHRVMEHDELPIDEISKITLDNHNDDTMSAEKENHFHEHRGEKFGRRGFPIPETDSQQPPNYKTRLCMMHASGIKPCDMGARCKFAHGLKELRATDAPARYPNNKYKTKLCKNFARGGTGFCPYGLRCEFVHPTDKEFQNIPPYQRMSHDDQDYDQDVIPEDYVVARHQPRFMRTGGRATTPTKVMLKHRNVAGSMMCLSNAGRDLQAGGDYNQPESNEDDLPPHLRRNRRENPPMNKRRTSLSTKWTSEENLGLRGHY
The test can be described thus: potency of MEX-5 RNA-binding blockers – biochemical, C. elegans, fluorescence polarization, dose response (AID 1960). A general note: Polarisation of emitted light reports the rotation of a fluorescent probe.

Test [6] deals with T3, RNA-binding protein pos-1 (Caenorhabditis elegans, UniProt G5EF15).
T3 sequence (G5EF15 whole entry): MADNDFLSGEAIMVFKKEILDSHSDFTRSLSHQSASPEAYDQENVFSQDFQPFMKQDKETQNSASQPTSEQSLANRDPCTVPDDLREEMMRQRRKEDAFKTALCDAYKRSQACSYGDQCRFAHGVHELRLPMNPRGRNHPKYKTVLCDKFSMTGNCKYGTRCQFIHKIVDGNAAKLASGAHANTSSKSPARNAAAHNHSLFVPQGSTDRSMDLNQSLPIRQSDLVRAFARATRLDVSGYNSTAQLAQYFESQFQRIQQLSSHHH
The test can be described thus: disruptors of C. elegans POS-1 RNA interaction – biochemical, fluorescence polarization, dose response (AID 1964).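 Further: purified POS-1 fused to maltose binding protein made in E. coli; potency of compounds blocking POS-1 binding to fluorescent RNA.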

For test [7], the target named is T4, Replicative DNA helicase DnaB (Mycobacterium tuberculosis, UniProt P9WMR3).
T4 sequence (P9WMR3 whole entry): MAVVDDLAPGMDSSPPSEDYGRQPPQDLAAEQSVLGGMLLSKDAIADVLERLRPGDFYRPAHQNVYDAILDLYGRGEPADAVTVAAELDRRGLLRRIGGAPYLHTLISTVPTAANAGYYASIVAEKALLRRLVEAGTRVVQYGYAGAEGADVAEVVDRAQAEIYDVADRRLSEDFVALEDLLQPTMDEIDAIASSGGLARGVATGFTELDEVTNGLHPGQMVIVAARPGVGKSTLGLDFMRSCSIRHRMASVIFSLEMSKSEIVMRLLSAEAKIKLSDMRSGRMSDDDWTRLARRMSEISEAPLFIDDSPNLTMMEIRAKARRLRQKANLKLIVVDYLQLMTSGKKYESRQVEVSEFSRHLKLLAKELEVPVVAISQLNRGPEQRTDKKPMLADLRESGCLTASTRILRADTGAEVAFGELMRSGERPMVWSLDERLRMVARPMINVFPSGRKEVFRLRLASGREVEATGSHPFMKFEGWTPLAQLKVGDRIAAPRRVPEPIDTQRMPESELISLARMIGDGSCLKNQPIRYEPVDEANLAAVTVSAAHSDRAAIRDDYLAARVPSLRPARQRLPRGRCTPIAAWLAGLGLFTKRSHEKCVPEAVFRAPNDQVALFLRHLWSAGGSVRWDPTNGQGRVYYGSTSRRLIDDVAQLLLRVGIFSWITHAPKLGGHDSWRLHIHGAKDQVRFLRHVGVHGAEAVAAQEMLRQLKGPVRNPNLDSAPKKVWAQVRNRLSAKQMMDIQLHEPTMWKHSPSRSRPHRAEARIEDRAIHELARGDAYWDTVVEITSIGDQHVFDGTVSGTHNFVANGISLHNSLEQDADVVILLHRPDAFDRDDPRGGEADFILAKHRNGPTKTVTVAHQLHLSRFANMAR
In words: DnaB intein splicing inhibitors, dose response, biochemical, cell-free fluorescence (AID 449749). Type of test: functional.

In test [8] the target is T5, Heat shock factor protein 1 (Mus musculus, UniProt P38532).
T5 sequence (P38532 whole entry): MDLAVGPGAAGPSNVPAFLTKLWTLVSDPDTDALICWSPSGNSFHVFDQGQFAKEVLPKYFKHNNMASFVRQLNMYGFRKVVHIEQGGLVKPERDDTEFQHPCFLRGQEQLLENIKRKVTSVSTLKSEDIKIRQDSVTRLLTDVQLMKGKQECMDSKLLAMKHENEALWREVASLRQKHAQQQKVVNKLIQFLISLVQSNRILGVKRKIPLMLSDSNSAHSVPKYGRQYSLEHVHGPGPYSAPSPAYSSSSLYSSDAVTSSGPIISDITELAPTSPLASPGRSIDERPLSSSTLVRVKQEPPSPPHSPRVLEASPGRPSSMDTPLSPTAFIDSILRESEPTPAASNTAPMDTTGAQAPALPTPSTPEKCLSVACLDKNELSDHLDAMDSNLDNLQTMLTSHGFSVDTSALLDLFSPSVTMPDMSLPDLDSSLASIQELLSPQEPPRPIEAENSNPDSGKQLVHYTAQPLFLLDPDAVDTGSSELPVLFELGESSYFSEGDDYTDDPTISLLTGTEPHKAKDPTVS
In words: enhancement of HSF1-driven luciferase signal – cell-based, NIH3T3, luminescence, dose retest, confirmation (AID 435004).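 Further: stress induced by proteasome inhibitor MG132 added 30 min after compound; luciferase reporter driven by HSF1 response element in NIH3T3 cells; actives raise luminescence as potentiators of the MG132 stress response.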 The format is functional.

A further test concerns the target T6, Protein RecA (Mycobacterium tuberculosis, UniProt P9WHJ3).
T6 sequence (P9WHJ3 whole entry): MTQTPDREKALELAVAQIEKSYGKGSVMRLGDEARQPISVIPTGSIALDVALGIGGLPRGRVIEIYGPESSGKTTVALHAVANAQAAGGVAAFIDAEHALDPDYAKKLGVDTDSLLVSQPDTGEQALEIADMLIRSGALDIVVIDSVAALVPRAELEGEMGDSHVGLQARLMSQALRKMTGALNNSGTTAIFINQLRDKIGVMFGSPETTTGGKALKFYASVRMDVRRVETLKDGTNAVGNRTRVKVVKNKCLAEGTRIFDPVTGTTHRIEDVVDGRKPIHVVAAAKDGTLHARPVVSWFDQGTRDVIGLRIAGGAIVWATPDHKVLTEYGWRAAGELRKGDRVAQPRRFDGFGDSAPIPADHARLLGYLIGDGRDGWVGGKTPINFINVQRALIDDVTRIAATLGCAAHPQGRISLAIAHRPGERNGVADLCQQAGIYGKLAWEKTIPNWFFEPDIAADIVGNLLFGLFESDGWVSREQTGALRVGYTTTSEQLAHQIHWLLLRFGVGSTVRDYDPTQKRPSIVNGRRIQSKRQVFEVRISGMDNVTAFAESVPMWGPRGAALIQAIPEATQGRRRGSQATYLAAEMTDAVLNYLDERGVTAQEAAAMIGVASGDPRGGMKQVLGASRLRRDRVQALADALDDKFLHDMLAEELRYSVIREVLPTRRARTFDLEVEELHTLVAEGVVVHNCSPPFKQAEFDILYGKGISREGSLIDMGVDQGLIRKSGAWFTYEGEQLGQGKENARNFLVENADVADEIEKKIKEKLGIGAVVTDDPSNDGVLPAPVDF
The test can be described thus: Fluorescence Cell-Free Homogeneous Dose Retest to Identify Inhibitors of RecA-Intein Splicing Activity. [Related pubchem assays (depositor defined):AID2097, AID2223, AID489010, AID492950]. Type of test: functional.

Calls of active or inactive are those of the source.

Nonstructural protein 1, sequence (Q194T2 whole entry): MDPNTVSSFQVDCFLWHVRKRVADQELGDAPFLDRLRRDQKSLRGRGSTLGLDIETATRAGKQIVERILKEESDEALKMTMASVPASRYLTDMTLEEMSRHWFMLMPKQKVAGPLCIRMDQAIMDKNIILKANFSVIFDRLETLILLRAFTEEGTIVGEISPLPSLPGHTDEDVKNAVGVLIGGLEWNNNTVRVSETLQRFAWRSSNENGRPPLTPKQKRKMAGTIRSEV

Take `NC(=S)N/N=C/c1ccccc1O`: in the test with INS1, the AC50 – broadly, the concentration at which the activity in the assay is half-maximal – is 0.945 µM (active). For the same molecule, the IC50 (usually the point on the concentration scale where inhibition reaches its midpoint) at Nonstructural protein 1 was 14.1 µM (active). `O=C(Cc1cccs1)N/N=C\c1ccc(O)cc1`: the concentration for half-maximal inhibition (IC50) in test [1] was 39.3 µM (active). Regarding `O=[N+]([O-])c1cc(/C=N/Nc2nc(N3CCCCC3)nc(N3CCCCC3)n2)ccc1O`, on Nonstructural protein 1, the half-inhibitory concentration (IC50) was > 100 µM (active). With `COc1ccc(N2CCN(CC(=O)N3c4ccccc4CC3C)CC2)cc1` (configuration not stated), the IC50 in test [1] is 79.7 µM (active). Regarding `COc1ccc(S(=O)(=O)NC[C@@H]2CC[C@H]3[C@H](CN3Cc3cc(F)ccc3F)O2)cc1`, the AC50 in test [2] is 1.21 µM (active). On the same count and under the same terms, the figure for `O=C(COC(=O)c1cccc(S(=O)(=O)N2CCOCC2)c1)NCc1ccccc1` is 59.6 µM (active). For the molecule `Cc1cccc(-n2cnc(C(=O)NN=C(S)Nc3ccc(Cl)cc3)c2)n1`, the IC50 on Nonstructural protein 1 was 8.22 µM (active). As to `O=C(c1cccc(F)c1)N1CCN(Cc2cccc(Br)c2)CC1`, the half-inhibitory concentration (IC50) in test [1] was 136 µM (active). For the molecule `CC(C)(C)c1ccc(SCC(N)=O)cc1`, the EC50 – broadly, the concentration giving half of the maximal effect – is > 38 µM (not active) in test [3] and > 150 µM (inconclusive) in test [4]. Turning to `COc1ccc(NC2CCCN(C(=O)COc3ccc(Cl)cc3C)C2)cc1OC` (configuration not stated), the half-maximal inhibitory concentration (IC50) in [1] is 110 µM (active).

On to `O=[N+]([O-])c1cc(Br)c2nsnc2c1N1CCOCC1`, for which the half-inhibitory concentration (IC50) at Nonstructural protein 1 was 27.5 µM (active).

As to `COc1ccc(OCCOCCN2CCN(C)CC2)cc1`, in test [1], the IC50 is 70.2 µM (active). On to `CSc1nc(Cl)c(C#N)c(-c2ccc(C)cc2)n1`, for which the half-maximal effective concentration (EC50) in test [3] was 1.55 µM (active); in [4], > 150 µM (inconclusive). The matching figures for `COc1ccc(C(=O)On2c(-c3ccc(Br)cc3)nc3ccccc3c2=O)cc1`: 1.8 µM (active) and 6.36 µM (inconclusive). As for `CCOC(=O)CC(/C(C)=N\O)c1ccccc1` (configuration not stated), the EC50 in [3] is > 38 µM (not active); in [4] it was > 160 µM (inactive). In the case of `CN1CCc2c(sc3c2C(=O)NC(c2ccccn2)N3)C1` (configuration not stated), the half-maximal effective concentration (EC50) in test [5] is 14.3 µM (active); in test [6] it was 15.1 µM (active). Also, the half-inhibitory concentration (IC50) on Nonstructural protein 1 was 13.7 µM (active).

On to `COc1cc(C2CC(=O)Oc3c(C(CCN4CCCC(C)C4)c4ccc(N(C)C)cc4)c(OC)cc(OC)c32)cc(OC)c1OC` (configuration not stated), for which the IC50 on Nonstructural protein 1 was 28.5 µM (active). For `O=C(C[C@@H]1C[C@H]2c3cc(NC(=O)C4CCC4)ccc3O[C@H]2[C@H](CO)O1)NCC(F)(F)F`, the concentration at half-maximal activity (AC50) in test [2] is 1.7 µM (active). Consider `Cc1nn(-c2ccccc2)c(C)c1C(=O)Nc1nnc(-c2ccco2)o1`, for which the half-maximal effective concentration (EC50) was 1.03 µM (active) in test [3] and > 150 µM (inactive) in [4]. As for `COc1cc(OC)cc(-c2nnc(Sc3ccc(C=O)cc3[N+](=O)[O-])o2)c1`, the half-maximal activity concentration (AC50) in test [7] is 6.58 µM (active). Besides, the EC50 in test [8] is > 260 µM (inactive); at Protein RecA, 2.04 µM (active). On to `Cc1cc(Cl)ccc1NNC(=O)c1c(C)noc1C`, for which the concentration giving a half-maximal response (EC50) in [3] was > 38 µM (not active); in test [4], 32.7 µM (active).
